The values below come from patent US20100324058A1 (Obschestvo S Organichennoi Otvetsttvennoctiyou "Bionika", priority 2007, published 2010).

For series [1] the following is noted: cited from earlier work.
Another series deals with experimental animals. Conditions: lethal dose of argothroban after clinical testing; cited from earlier work.
For series [2], the target named is T1, thrombin (Homo sapiens, UniProt P00734). Kind of series: Effect of test compounds on thrombin activity: hydrolysis rate of chromogenic (Chromozim TH) or fluorogenic (BOC-Ala-Pro-Arg-AMC) substrate. In kind it is biochemical. Conditions: for inhibition at 0.01 µM: concentration of compound 10 nM; for inhibition at 0.02 µM: concentration of compound 20 nM; for inhibition at 0.04 µM: concentration of compound 40 nM; for inhibition at 0.1 µM: concentration of compound 100 nM; for inhibition at 0.2 µM: concentration of compound 200 nM; for inhibition at 0.05 µM: concentration of compound 50 nM; for inhibition at 0.005 µM: concentration of compound 5 nM. From the text: The effect of the synthesized substances on thrombin activity was studied by measuring the hydrolysis rate of specific low molecular weight substrates with thrombin in an aqueous buffering solution in the absence and presence of these compounds. One of these substrates was chromogenic substrate Chromozim TH (CTH): N-(p-Tosyl)-Gly-Pro-Arg-pNA [Sonder S A, Fenton J W 2nd. Thrombin Specificity with Tripeptide Chromogenic Substrates: Comparison of Human and Bovine Thrombins with and without Fibrinogen Clotting Activities. Clin. Chem., 1986, 32(6):934-937]. Another substrate that was used in a number of experiments was fluorogenic substrate BOC-Ala-Pro-Arg-AMC (S), wherein BOC is butoxycarbonyl residue, and AMC is 7-amino-4-methylcoumaryl [Kawabata S, Miura T, Morita T, Kato H, Fujikawa K, Ivanaga S, Takada K, Kimura T, Sakakibara S. Highly Sensitive peptide-4-methylcoumaryl-7-amide Substrates for Blood-Clotting Proteases and Trypsin. Eur. J. Biochem., 1988, 172(1):17-25].
The holes of a common 96-hole board were filled with a buffer containing 140 mM of NaCl, 20 mM of HEPES, and 0.1% polyethylene glycol (Mw=6,000), at pH=8.0. […] When a chromogenic substrate was used, accumulation of the colored reaction product—para-nitroaniline—was followed on a spectrophotometric Molecular Devices board reader (Thermomax, U.S.), measuring the increase in optical density on the 405 nm wavelength. […] The reaction kinetics was registered on a fluorometric Titertek Fluoroskan board reader (LabSystem, Finland).
The initial reaction rate was measured as the tangent of the kinetic curve inclination angle on a straight section (first 10 to 15 minutes of registration). Reaction rate without an inhibitor was a ssumed to be 100%. The mean arithmetic value of two independent measurements was used as the end result.

Series [3] has as its target T1, thrombin. The conditions noted are these: literature, PDB complex; cited from earlier work.
Where [4] appears, read: concentration of compound 0.5 mcM.
Setting [5] is: concentration of compound 1 mcM.
Setting [6] is: concentration of compound 2.5 mcM.
Setting [7] is: concentration of compound 5 mcM.
The mark [8] stands for this setting: concentration of compound 50 mcM.
Where [9] appears, read: concentration of compound 2 mcM.

For the molecule `CC1CNc2c(cccc2S(=O)(=O)N[C@@H](CCCNC(=N)N)C(=O)N2CC[C@@H](C)C[C@@H]2C(=O)O)C1` (some centres unmarked) [Argatroban], the T1/2 in plasma in series [1] was 36 min. Further, the LD50 in the series on experimental animals is 475 mg/kg.
On thrombin [2] (concentration of compound 4 nM), `C/N=C(/N)SCCOc1cc(C)cc(OS(=O)(=O)c2ccccc2Cl)c1.I` [HC_033s_IOC] gave an inhibition at 0.004 µM of 18%. At thrombin [2], this molecule displayed an inhibition at 0.01 µM of 23%, an inhibition at 0.02 µM of 24%, an inhibition at 0.04 µM of 62% and an inhibition at 0.1 µM of 59%. 0.2 µM produced 74% inhibition against thrombin [2]. Moreover, the “Hydrolysis rate inhibition, %” value at thrombin [2] (concentration of compound 4 mcM) is 100%.
In the case of `CNc1ccc(S(=O)(=O)N(C)c2ccccc2)cc1NC(=O)CC[n+]1ccc(N)cc1.[Cl-]` [HC_028s_IOC], the “Hydrolysis rate inhibition, %” value is 15% at thrombin [2] (concentration of compound 0.1 mcM); 34% on thrombin [2] (concentration of compound 0.25 mcM); 46% on thrombin [2] (setting [4]); 44% on thrombin [2] (setting [5]); 63% on thrombin [2] (setting [6]); 78% on thrombin [2] (setting [7]). In addition, the “Hydrolysis rate inhibition, %” value at thrombin [2] (concentration of compound 25 mcM) is recorded as 95%; at thrombin [2] (setting [8]), 95%; on thrombin [2] (concentration of compound 250 mcM) it was 100%; at thrombin [2] (concentration of compound 500 mcM), 100%.
For `Cc1cc(OCCC[n+]2ccc(N)cc2)cc(OS(=O)(=O)c2ccccc2F)c1.[I-]` [HC_029s_IOC], at 0.05 µM the inhibition against thrombin [2] was 8%. The molecule also had an inhibition at 0.1 µM at thrombin [2] of 14%. Besides, 0.25 µM produced 16% inhibition at thrombin [2] (concentration of compound 250 nM). Further, the “Hydrolysis rate inhibition, %” value is given as 25% at thrombin [2] (setting [4]), 54% on thrombin [2] (setting [5]), 75% on thrombin [2] (setting [6]) and 81% at thrombin [2] (setting [7]).
`Cc1cc(OCCCSC(=N)N)cc(OS(=O)(=O)c2ccccc2F)c1.I` [HC_031s_IOC]: at thrombin [2], the inhibition at 0.005 µM was found to be 35%, at 0.01 µM the inhibition was 43%, 0.02 µM produced 49% inhibition and at 0.05 µM the inhibition was 59%. The molecule further yielded an inhibition at 0.1 µM against thrombin [2] of 73%. Also, on thrombin [2] (setting [9]), the “Hydrolysis rate inhibition, %” value was found to be 99%. Moreover, the “Hydrolysis rate inhibition, %” value on thrombin [2] (setting [7]) was 100%.
On to `Cc1cc(OCCSC(=N)N)cc(OS(=O)(=O)c2ccccc2S(C)(=O)=O)c1` [HC_040s_IOC], for which at 0.0025 µM the inhibition against thrombin [2] (concentration of compound 2.5 nM) was 4%. Moreover, on thrombin [2], the inhibition at 0.005 µM came to 19% and the inhibition at 0.05 µM came out at 75%. The inhibition at 0.025 µM against thrombin [2] (concentration of compound 25 nM) was found to be 66%. For the same molecule, at thrombin [2] (setting [6]), the “Hydrolysis rate inhibition, %” value is on record as 100%.
The molecule `Cc1cc(OCCCSC(=N)N)cc(OS(=O)(=O)c2ccccc2)c1.I` [HC-018s-IOC, 3-(3-methyl-5-(benzenesulfonyloxy)phenoxy)propyl-isothiouronium iodide] gave an inhibition at 0.02 µM on thrombin [2] of 16%. The inhibition at 0.04 µM against thrombin [2] was determined as 33%. For the same molecule, 0.1 µM produced 49% inhibition at thrombin [2]. On thrombin [2], the inhibition at 0.2 µM was 64%. The “Hydrolysis rate inhibition, %” value was determined as 93% on thrombin [2] (setting [4]); 98% on thrombin [2] (setting [5]); 100% on thrombin [2] (setting [9]); 100% on thrombin [2] (setting [7]); 100% on thrombin [2] (concentration of compound 10 mcM); 100% at thrombin [2] (concentration of compound 20 mcM). Further, the “Hydrolysis rate inhibition, %” value at thrombin [2] (setting [8]) and at thrombin [2] (concentration of compound 100 mcM) was 100% each time.
With `Cc1cc(OCCC[n+]2ccc(N)cc2)cc(OS(=O)(=O)c2ccccc2)c1` [HC-016s-IOC, 4-amino-1-(3-(3-methyl-5-(benzenesulfonyloxy)phenoxy)propyl)-pyridinium iodide], on thrombin [2] (concentration of compound 0.25 mM), 250 µM produced 84% inhibition. At thrombin [2] (concentration of compound 0.5 mM), this molecule registered an inhibition at 500 µM of 100%.
In the case of `N=c1ccc2cc3ccc(N)cc3[nH]c-2c1` [Proflavin], the Kd on thrombin [3] was roughly 10 µM.
